ChEMBL document CHEMBL1201861, “Genomics of Drug Sensitity in Cancer screening data, Wellcome Trust Sanger Institute”

Legend:
[1] = test system: NCI-H2196; experiment: cells; type: functional, cell-based; conditions: Homo sapiens;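 further: cell viability assay used as the readout of growth inhibition in NCI-H2196 cells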
Description: SANGER: Inhibition of human NCI-H2196 cell growth in a cell viability assay.

[2] = test system: NCI-H1882; experiment: cells; type: functional, cell-based; conditions: Homo sapiens
Description: SANGER: Inhibition of human NCI-H1882 cell growth in a cell viability assay.

[3] = test system: NCI-H2009; experiment: cells; type: functional, cell-based, Homo sapiens; conditions: Homo sapiens, NCI-H2009;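 further: cell viability assay measuring inhibition of NCI-H2009 cell growth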
Description: SANGER: Inhibition of human NCI-H2009 cell growth in a cell viability assay.

[4] = test system: SIG-M5; experiment: cells; type: functional, cell-based; conditions: Homo sapiens;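 further: cell viability assay read-out, measuring how strongly growth of cultured human SIG-M5 cells is inhibited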
Description: SANGER: Inhibition of human SIG-M5 cell growth in a cell viability assay.

[5] = test system: NCI-H522; experiment: cells; type: functional, cell-based, Homo sapiens; conditions: Homo sapiens, NCI-H522;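 further: cell viability assay measuring growth inhibition of human NCI-H522 cells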
Description: SANGER: Inhibition of human NCI-H522 cell growth in a cell viability assay.

[6] = test system: SCC-3; experiment: cells; type: functional, cell-based; conditions: Homo sapiens;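 further: cell viability assay measuring inhibition of SCC-3 cell growth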
Description: SANGER: Inhibition of human SCC-3 cell growth in a cell viability assay.

[7] = test system: SIMA; experiment: cells; type: functional, cell-based, Homo sapiens; conditions: Homo sapiens, SIMA;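 further: growth inhibition of SIMA cells, measured with a cell viability readout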
Description: SANGER: Inhibition of human SIMA cell growth in a cell viability assay.

[8] = test system: HCC1599; experiment: cells; type: functional, cell-based; conditions: Homo sapiens;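 further: growth inhibition of HCC1599 cells, read out in a cell viability assay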
Description: SANGER: Inhibition of human HCC1599 cell growth in a cell viability assay.

[9] = test system: CHP-126; experiment: cells; type: functional, cell-based; conditions: Homo sapiens
Description: SANGER: Inhibition of human CHP-126 cell growth in a cell viability assay.

[10] = test system: SUP-T1; experiment: cells; type: functional, cell-based; conditions: Homo sapiens;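 further: growth inhibition of human SUP-T1 cells, read out as cell viability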
Description: SANGER: Inhibition of human SUP-T1 cell growth in a cell viability assay.

[11] = test system: NCI-H1963; experiment: cells; type: functional, cell-based; conditions: Homo sapiens
Description: SANGER: Inhibition of human NCI-H1963 cell growth in a cell viability assay.

[12] = test system: SK-MM-2; experiment: cells; type: functional, cell-based; conditions: Homo sapiens;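 further: growth inhibition of human SK-MM-2 cells, read out with a cell viability assay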
Description: SANGER: Inhibition of human SK-MM-2 cell growth in a cell viability assay.

[13] = test system: U-698-M; experiment: cells; type: functional, cell-based; conditions: Homo sapiens
Description: SANGER: Inhibition of human U-698-M cell growth in a cell viability assay.

[14] = test system: SU-DHL-1; experiment: SANGER: Inhibition of human SU-DHL-1 cell growth in a cell viability assay.; type: functional, cell-based
[15] = test system: K052; experiment: cells; type: functional, cell-based; conditions: Homo sapiens;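 further: Read-out from a cell viability assay, IC50 reflecting suppression of K052 cell growth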
Description: SANGER: Inhibition of human K052 cell growth in a cell viability assay.

[16] = test system: THP-1; experiment: cells; type: functional, cell-based; conditions: Homo sapiens;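 further: growth inhibition of THP-1 cells, read out via a cell viability assay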
Description: SANGER: Inhibition of human THP-1 cell growth in a cell viability assay.

[17] = test system: NCI-H64; experiment: cells; type: functional, cell-based; conditions: Homo sapiens;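 further: growth inhibition of NCI-H64 cells, read out with a cell viability assay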
Description: SANGER: Inhibition of human NCI-H64 cell growth in a cell viability assay.

[18] = test system: MONO-MAC-6; experiment: cells; type: functional, cell-based; conditions: Homo sapiens;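 further: cell viability assay measuring growth inhibition of human MONO-MAC-6 cells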
Description: SANGER: Inhibition of human MONO-MAC-6 cell growth in a cell viability assay.

[19] = test system: CA46; experiment: cells; type: functional, cell-based; conditions: Homo sapiens;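 further: growth inhibition of human CA46 cells, read out by a cell viability assay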
Description: SANGER: Inhibition of human CA46 cell growth in a cell viability assay.

[20] = test system: NB1; experiment: cells; type: functional, cell-based; conditions: Homo sapiens;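 further: reduction of NB1 cell proliferation, read out with a viability assay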
Description: SANGER: Inhibition of human NB1 cell growth in a cell viability assay.

[21] = test system: P31-FUJ; experiment: cells; type: functional, cell-based; conditions: Homo sapiens;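 further: growth inhibition of P31-FUJ cells, read out with a viability assay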
Description: SANGER: Inhibition of human P31-FUJ cell growth in a cell viability assay.

[22] = test system: LB647-SCLC; experiment: cells; type: functional, cell-based; conditions: Homo sapiens;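 further: cell growth inhibition, read out by a viability assay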
Description: SANGER: Inhibition of human LB647-SCLC cell growth in a cell viability assay.

[23] = test system: KARPAS-422; experiment: cells; type: functional, cell-based; conditions: Homo sapiens
Description: SANGER: Inhibition of human KARPAS-422 cell growth in a cell viability assay.

[24] = test system: TE-15; experiment: cells; type: functional, cell-based; conditions: Homo sapiens;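 further: cell viability readout of growth inhibition in TE-15 cells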
Description: SANGER: Inhibition of human TE-15 cell growth in a cell viability assay.

[25] = test system: NCI-H1573; experiment: cells; type: functional, cell-based; conditions: Homo sapiens;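 further: growth inhibition of NCI-H1573 cells, read out with a cell viability assay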
Description: SANGER: Inhibition of human NCI-H1573 cell growth in a cell viability assay.

[26] = test system: SNU-423; experiment: cells; type: functional, cell-based, Homo sapiens; conditions: Homo sapiens, SNU-423
Description: SANGER: Inhibition of human SNU-423 cell growth in a cell viability assay.

[27] = test system: MRK-nu-1; experiment: cells; type: functional, cell-based; conditions: Homo sapiens;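 further: cell viability assay measuring growth suppression of human MRK-nu-1 cells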
Description: SANGER: Inhibition of human MRK-nu-1 cell growth in a cell viability assay.

[28] = test system: PF-382; experiment: cells; type: functional, cell-based; conditions: Homo sapiens
Description: SANGER: Inhibition of human PF-382 cell growth in a cell viability assay.

[29] = test system: WSU-NHL; experiment: cells; type: functional, cell-based; conditions: Homo sapiens;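 further: growth inhibition of human WSU-NHL cells, read out with a cell viability assay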
Description: SANGER: Inhibition of human WSU-NHL cell growth in a cell viability assay.

[30] = test system: REH; experiment: cells; type: functional, cell-based; conditions: Homo sapiens;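 further: growth inhibition of REH cells determined with a cell viability read-out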
Description: SANGER: Inhibition of human REH cell growth in a cell viability assay.

[31] = test system: DMS-153; experiment: cells; type: functional, cell-based; conditions: Homo sapiens
Description: SANGER: Inhibition of human DMS-153 cell growth in a cell viability assay.

[32] = test system: HSC-4; experiment: cells; type: functional, cell-based, Homo sapiens; conditions: Homo sapiens, HSC-4;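 further: growth inhibition of human HSC-4 cells, read out with a cell viability assay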
Description: SANGER: Inhibition of human HSC-4 cell growth in a cell viability assay.

[33] = test system: NCI-H322M; experiment: cells; type: functional, cell-based; conditions: Homo sapiens;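 further: cell viability assay measuring inhibition of growth of human NCI-H322M cells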
Description: SANGER: Inhibition of human NCI-H322M cell growth in a cell viability assay.

[34] = test system: EB2; experiment: cells; type: functional, cell-based; conditions: Homo sapiens;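 further: growth inhibition of EB2 cells, read out with a cell viability assay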
Description: SANGER: Inhibition of human EB2 cell growth in a cell viability assay.

[35] = test system: LOUCY; experiment: cells; type: functional, cell-based; conditions: Homo sapiens;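 further: growth inhibition of human LOUCY cells, read out with a cell viability assay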
Description: SANGER: Inhibition of human LOUCY cell growth in a cell viability assay.

[36] = test system: IMR-5; experiment: cells; type: functional, cell-based; conditions: Homo sapiens;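 further: growth inhibition of human IMR-5 cells, read out with a cell viability assay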
Description: SANGER: Inhibition of human IMR-5 cell growth in a cell viability assay.

[37] = test system: LC-1F; experiment: cells; type: functional, cell-based; conditions: Homo sapiens;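 further: growth inhibition of human LC-1F cells, read out with a cell viability assay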
Description: SANGER: Inhibition of human LC-1F cell growth in a cell viability assay.

[38] = test system: TALL-1; experiment: cells; type: functional, cell-based; conditions: Homo sapiens;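 further: growth inhibition of cultured human TALL-1 cells, read out by a cell viability assay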
Description: SANGER: Inhibition of human TALL-1 cell growth in a cell viability assay.

[39] = test system: NCI-H1694; experiment: cells; type: functional, cell-based; conditions: Homo sapiens;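 further: cell viability assay measuring inhibition of growth in human NCI-H1694 cells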
Description: SANGER: Inhibition of human NCI-H1694 cell growth in a cell viability assay.

[40] = test system: IM-9; experiment: SANGER: Inhibition of human IM-9 cell growth in a cell viability assay.; type: functional, cell-based
[41] = test system: EB-3; experiment: cells; type: functional, cell-based; conditions: Homo sapiens;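 further: human EB-3 cells, growth inhibition read out via a cell viability assay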
Description: SANGER: Inhibition of human EB-3 cell growth in a cell viability assay.

[42] = test system: BC1 cell line; experiment: SANGER: Inhibition of human BC-1 cell growth in a cell viability assay.; type: functional, cell-based
[43] = test system: NCI-H2227; experiment: cells; type: functional, cell-based; conditions: Homo sapiens;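 further: growth inhibition of the human cell line, read out with a cell viability assay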
Description: SANGER: Inhibition of human NCI-H2227 cell growth in a cell viability assay.

[44] = test system: CESS; experiment: SANGER: Inhibition of human CESS cell growth in a cell viability assay.; type: functional, cell-based
[45] = test system: NCI-H1522; experiment: cells; type: functional, cell-based; conditions: Homo sapiens;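 further: growth inhibition of NCI-H1522 cells, read out with a cell viability assay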
Description: SANGER: Inhibition of human NCI-H1522 cell growth in a cell viability assay.

[46] = test system: NCI-H719; experiment: cells; type: functional, cell-based; conditions: Homo sapiens;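 further: growth inhibition of the cultured cell line, read out with a viability assay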
Description: SANGER: Inhibition of human NCI-H719 cell growth in a cell viability assay.

[47] = test system: UACC-812; experiment: cells; type: functional, cell-based; conditions: Homo sapiens
Description: SANGER: Inhibition of human UACC-812 cell growth in a cell viability assay.

[48] = test system: BC-3; experiment: cells; type: functional, cell-based; conditions: Homo sapiens;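 further: cell viability assay measuring growth inhibition of human BC-3 cells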
Description: SANGER: Inhibition of human BC-3 cell growth in a cell viability assay.

Work on C=CCc1cccc(/C=N/NC(=O)CN2CCN(Cc3ccccc3)CC2)c1O [PAC-1] yielded an IC50 [1] greater than 2560 nM, an IC50 [2] greater than 2560 nM and an IC50 [3] greater than 2560 nM. For the same compound, the IC50 [4] was greater than 2560 nM, the IC50 [5] was greater than 2560 nM and the IC50 [6] was greater than 2560 nM. The IC50 [7] was greater than 2560 nM, the IC50 [8] was greater than 2560 nM and the IC50 [9] was 918 nM. It also gave an IC50 [10] of 1000 nM, an IC50 [11] greater than 2560 nM and an IC50 [12] greater than 2560 nM. The IC50 [13] was greater than 2560 nM, the IC50 [14] was greater than 2560 nM and the IC50 [15] was greater than 2560 nM. The IC50 [16] was greater than 2560 nM, the IC50 [17] was greater than 2560 nM and the IC50 [18] was greater than 2560 nM. The IC50 [19] was 2020 nM, the IC50 [20] was greater than 2560 nM and the IC50 [21] was greater than 2560 nM. It also gave an IC50 [22] greater than 2560 nM, an IC50 [23] greater than 2560 nM and an IC50 [24] greater than 2560 nM. The IC50 [25] was greater than 2560 nM, the IC50 [26] was greater than 2560 nM and the IC50 [27] was greater than 2560 nM. It also gave an IC50 [28] of 1060 nM, an IC50 [29] greater than 2560 nM and an IC50 [30] of 944 nM. It also gave an IC50 [31] greater than 2560 nM, an IC50 [32] greater than 2560 nM and an IC50 [33] greater than 2560 nM. For the same compound, the IC50 [34] was greater than 2560 nM, the IC50 [35] was 823 nM and the IC50 [36] was greater than 2560 nM. For the same compound, the IC50 [37] was greater than 2560 nM, the IC50 [38] was greater than 2560 nM and the IC50 [39] was greater than 2560 nM. The IC50 [40] was greater than 2560 nM, the IC50 [41] was greater than 2560 nM and the IC50 [42] was 1100 nM. For the same compound, the IC50 [43] was greater than 2560 nM, the IC50 [44] was 1490 nM and the IC50 [45] was greater than 2560 nM. For the same compound, the IC50 [46] was greater than 2560 nM, the IC50 [47] was greater than 2560 nM and the IC50 [48] was greater than 2560 nM.
With Cc1ccc(Nc2nccc(N(C)c3ccc4c(C)n(C)nc4c3)n2)cc1S(N)(=O)=O [PAZOPANIB] the IC50 [1] was greater than 8000 nM, the IC50 [2] was greater than 8000 nM and the IC50 [3] was greater than 8000 nM. For the same compound, the IC50 [4] was greater than 8000 nM, the IC50 [5] was greater than 8000 nM and the IC50 [6] was greater than 8000 nM. It also gave an IC50 [7] greater than 8000 nM, an IC50 [8] greater than 8000 nM and an IC50 [9] greater than 8000 nM. For the same compound, the IC50 [10] was greater than 8000 nM, the IC50 [11] was greater than 8000 nM and the IC50 [12] was greater than 8000 nM. The IC50 [13] was greater than 8000 nM, the IC50 [14] was greater than 8000 nM and the IC50 [15] was greater than 8000 nM. For the same compound, the IC50 [16] was greater than 8000 nM, the IC50 [17] was greater than 8000 nM and the IC50 [18] was greater than 8000 nM. For the same compound, the IC50 [19] was greater than 8000 nM, the IC50 [20] was greater than 8000 nM and the IC50 [21] was greater than 8000 nM. It also gave an IC50 [22] greater than 8000 nM, an IC50 [23] greater than 8000 nM and an IC50 [24] of 7170 nM. The IC50 [25] was 5970 nM, the IC50 [26] was greater than 8000 nM and the IC50 [27] was greater than 8000 nM. For the same compound, the IC50 [28] was greater than 8000 nM, the IC50 [29] was greater than 8000 nM and the IC50 [30] was greater than 8000 nM. For the same compound, the IC50 [31] was greater than 8000 nM, the IC50 [32] was greater than 8000 nM and the IC50 [33] was greater than 8000 nM. It also gave an IC50 [34] of 3280 nM, an IC50 [35] greater than 8000 nM and an IC50 [36] greater than 8000 nM. For the same compound, the IC50 [37] was greater than 8000 nM, the IC50 [38] was greater than 8000 nM and the IC50 [39] was greater than 8000 nM. The IC50 [40] was greater than 8000 nM, the IC50 [41] was greater than 8000 nM and the IC50 [42] was greater than 8000 nM. The IC50 [43] was greater than 8000 nM, the IC50 [44] was greater than 8000 nM and the IC50 [45] was greater than 8000 nM. For the same compound, the IC50 [46] was greater than 8000 nM, the IC50 [47] was greater than 8000 nM and the IC50 [48] was greater than 8000 nM.
C[C@]1(O)C[C@@H](c2nc(-c3ccc4ccc(-c5ccccc5)nc4c3)c3c(N)nccn32)C1 [LINSITINIB] was tested, and the IC50 [1] was greater than 2560 nM, the IC50 [2] was greater than 2560 nM and the IC50 [3] was greater than 2560 nM. It also gave an IC50 [4] of 536 nM, an IC50 [5] greater than 2560 nM and an IC50 [6] greater than 2560 nM. For the same compound, the IC50 [7] was 1070 nM, the IC50 [8] was greater than 2560 nM and the IC50 [9] was greater than 2560 nM. The IC50 [10] was greater than 2560 nM, the IC50 [11] was greater than 2560 nM and the IC50 [12] was 655 nM. It also gave an IC50 [13] greater than 2560 nM, an IC50 [14] greater than 2560 nM and an IC50 [15] greater than 2560 nM. It also gave an IC50 [16] greater than 2560 nM, an IC50 [17] greater than 2560 nM and an IC50 [18] greater than 2560 nM. For the same compound, the IC50 [19] was greater than 2560 nM, the IC50 [20] was greater than 2560 nM and the IC50 [21] was greater than 2560 nM. It also gave an IC50 [22] of 1770 nM, an IC50 [23] greater than 2560 nM and an IC50 [24] greater than 2560 nM. For the same compound, the IC50 [25] was greater than 2560 nM, the IC50 [26] was greater than 2560 nM and the IC50 [27] was greater than 2560 nM. The IC50 [28] was greater than 2560 nM, the IC50 [29] was greater than 2560 nM and the IC50 [30] was greater than 2560 nM. The IC50 [31] was greater than 2560 nM, the IC50 [32] was greater than 2560 nM and the IC50 [33] was greater than 2560 nM. It also gave an IC50 [34] greater than 2560 nM, an IC50 [35] greater than 2560 nM and an IC50 [36] greater than 2560 nM. It also gave an IC50 [37] greater than 2560 nM, an IC50 [38] greater than 2560 nM and an IC50 [39] greater than 2560 nM. It also gave an IC50 [40] greater than 2560 nM, an IC50 [41] greater than 2560 nM and an IC50 [42] greater than 2560 nM. The IC50 [43] was greater than 2560 nM, the IC50 [44] was greater than 2560 nM and the IC50 [45] was greater than 2560 nM. The IC50 [46] was greater than 2560 nM, the IC50 [47] was greater than 2560 nM and the IC50 [48] was greater than 2560 nM.
